Measured values: patent US9040545B2, “Heterocyclyl pyrazolopyrimidine analogues as selective JAK inhibitors” (Cellzome Limited, priority 2010, dated 2015)

Assays:
JAK2 = target: T1, JAK2 (Homo sapiens, UniProt O60674); assay: Kinobeads assay, JAK2; assay type: binding; settings: mixed Molt4/Ramos lysate, read-out: Inhibition values (IC50) JAK2
T1 construct: endogenous in cells; host or cells: mixed Molt4/Ramos lysate (1:2)
Protocol: (§1) The compounds of the present invention as described in the previous examples were tested in a Kinobeads™ assay as described for ZAP-70 (WO-A 2007/137867). Briefly, test compounds (at various concentrations) and the affinity matrix with the immobilized aminopyrido-pyrimidine ligand 24 were added to cell lysate aliquots and allowed to bind to the proteins in the lysate sample. After the incubation time the beads with captured proteins were separated from the lysate. Bound proteins were then eluted and the presence of JAK2 and JAK3 was detected and quantified using specific antibodies in a dot blot procedure and the Odyssey infrared detection system. Dose response curves for individual kinases were generated and IC50 values calculated. Kinobeads™ assays for ZAP-70 (WO-A 2007/137867) and for kinase selectivity profiling (WO-A 2006/134056) have been previously described.
(§2) The affinity matrix was washed two times with 15 mL of 1×DP buffer containing 0.2% NP40 (IGEPAL® CA-630, Sigma, #I3021) and then resuspended in 1×DP buffer containing 0.2% NP40 (3% beads slurry).
(§3) 5×DP buffer 250 mM Tris-HCl pH 7.4, 25% Glycerol, 7.5 mM MgCl2, 750 mM NaCl, 5 mM Na3VO4; filter the 5×DP buffer through a 0.22 μm filter and store in aliquots at −80° C. The 5×DP buffer is diluted with H2O to 1×DP buffer containing 1 mM DTT and 25 mM NaF.
(§4) Stock solutions of test compounds were prepared in DMSO. In a 96 well plate 30 μL solution of diluted test compounds at 5 mM in DMSO were prepared. Starting with this solution a 1:3 dilution series (9 steps) was prepared. For control experiments (no test compound) a buffer containing 2% DMSO was used.
Molt4 cells (ATCC catalogue number CRL-1582) and Ramos cells (ATCC catalogue number CRL-1596) were grown in 1 L Spinner flasks (Integra Biosciences, #182101) in suspension in RPMI 1640 medium (Invitrogen, #21875-034) supplemented with 10% Fetal Bovine Serum (Invitrogen) at a density between 0.15×106 and 1.2×10^6 cells/mL. Cells were harvested by centrifugation, washed once with 1×PBS buffer (Invitrogen, #14190-094) and cell pellets were frozen in liquid nitrogen and subsequently stored at −80° C. Cells were homogenized in a Potter S homogenizer in lysis buffer: 50 mM Tris-HCl, 0.8% NP40, 5% glycerol, 150 mM NaCl, 1.5 mM MgCl2, 25 mM NaF, 1 mM sodium vanadate, 1 mM DTT, pH 7.5. One complete EDTA-free tablet (protease inhibitor cocktail, Roche Diagnostics, 1873580) per 25 mL buffer was added. The material was dounced 10 times using a mechanized POTTER S, transferred to 50 mL falcon tubes, incubated for 30 minutes on ice and spun down for 10 minutes at 20,000 g at 4° C. (10,000 rpm in Sorvall SLA600, precooled). The supernatant was transferred to an ultracentrifuge (UZ)-polycarbonate tube (Beckmann, 355654) and spun for 1 hour at 100,000 g at 4° C. (33.500 rpm in Ti50.2, precooled). The supernatant was transferred again to a fresh 50 mL falcon tube, the protein concentration was determined by a Bradford assay (BioRad) and samples containing 50 mg of protein per aliquot were prepared. The samples were immediately used for experiments or frozen in liquid nitrogen and stored frozen at −80° C.
(§5) Cell lysate (approximately 50 mg protein per plate) was thawed in a water bath at room temperature and then stored on ice. To the thawed cell lysate 1×DP 0.8% NP40 buffer containing protease inhibitors (1 tablet for 25 mL buffer; EDTA-free protease inhibitor cocktail; Roche Diagnostics 1873580) was added in order to reach a final protein concentration of 10 mg/mL total protein. The diluted cell lysate was stored on ice. Mixed Molt4/Ramos lysate was prepared by combining one volume of Molt4 lysate and two volumes of Ramos lysate (ratio 1:2).
To a 96 well filter plate (Multiscreen HTS, BV Filter Plates, Millipore #MSBVN1250) were added per well: 100 μL affinity matrix (3% beads slurry), 3 μL of compound solution, and 50 μL of diluted lysate. […]

Aurora B = target: T2, Aurora B (Homo sapiens, UniProt Q96GD4); assay: Kinobeads assay, Aurora B; assay type: binding; settings: for IC50: lysate of pervanadate-treated Jurkat cells, read-out: Inhibition values (IC50) Aur B
T2 construct: cell lysates from Jurkat cells (ATCC TIB-152) used; endogenous in cells; host or cells: Jurkat cells (ATCC TIB-152), treated with pervanadate
T2 sequence (Q96GD4 whole entry): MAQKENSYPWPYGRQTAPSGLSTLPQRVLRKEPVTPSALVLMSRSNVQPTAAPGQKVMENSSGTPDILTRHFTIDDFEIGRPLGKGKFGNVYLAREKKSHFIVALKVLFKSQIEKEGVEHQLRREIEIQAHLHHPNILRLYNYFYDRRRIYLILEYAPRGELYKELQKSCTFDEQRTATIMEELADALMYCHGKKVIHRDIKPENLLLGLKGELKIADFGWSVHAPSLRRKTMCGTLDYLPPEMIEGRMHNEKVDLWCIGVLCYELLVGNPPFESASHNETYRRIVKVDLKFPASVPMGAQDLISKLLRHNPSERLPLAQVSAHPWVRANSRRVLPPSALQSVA
Protocol: as §1, §2, §3, §4, §5
To a 96 well filter plate (Multiscreen HTS, BV Filter Plates, Millipore #MSBVN1250) were added per well: 100 μL affinity matrix (3% beads slurry), 3 μL of compound solution, and 50 μL of diluted lysate. Plates were sealed and incubated for 3 hours in a cold room on a plate shaker (Heidolph tiramax 1000) at 750 rpm. Afterwards the plate was washed 3 times with 230 μL washing buffer (1×DP 0.4% NP40). The filter plate was placed on top of a collection 1 plate (Greiner bio-one, PP-microplate 96 well V-shape, 65120) and the beads were then eluted with 20 μL of sample buffer (100 mM Tris, pH 7.4, 4% SDS, 0.00025% bromophenol blue, 20% glycerol, 50 mM DTT). The eluate was frozen quickly at −80° C. and stored at −20° C.
The kinases in the eluates were detected and quantified by spotting on nitrocellulose membranes and using a first antibody directed against the kinase of interest and a fluorescently labelled secondary antibody (anti-rabbit IRDye™ antibody 800 (Licor, #926-32211). The Odyssey Infrared Imaging system from LI-COR Biosciences (Lincoln, Nebr., USA) was operated according to instructions provided by the manufacturer (Schutz-Geschwendener et al, 2004. Quantitative, two-color Western blot detection with infrared fluorescence. Published May 2004 by LI-COR Biosciences, www.licor.com).
After spotting of the eluates the nitrocellulose membrane (BioTrace NT; PALL, #BTNT30R) was first blocked by incubation with Odyssey blocking buffer (LICOR, 927-40000) for 1 hour at room temperature. Blocked membranes were then incubated for 16 hours at the temperature shown in Table 5 with the first antibody diluted in Odyssey blocking buffer (LICOR #927-40000). Afterwards the membrane was washed twice for 10 minutes with PBS buffer containing 0.2% Tween 20 at room temperature. […]

T1 sequence (O60674 whole entry): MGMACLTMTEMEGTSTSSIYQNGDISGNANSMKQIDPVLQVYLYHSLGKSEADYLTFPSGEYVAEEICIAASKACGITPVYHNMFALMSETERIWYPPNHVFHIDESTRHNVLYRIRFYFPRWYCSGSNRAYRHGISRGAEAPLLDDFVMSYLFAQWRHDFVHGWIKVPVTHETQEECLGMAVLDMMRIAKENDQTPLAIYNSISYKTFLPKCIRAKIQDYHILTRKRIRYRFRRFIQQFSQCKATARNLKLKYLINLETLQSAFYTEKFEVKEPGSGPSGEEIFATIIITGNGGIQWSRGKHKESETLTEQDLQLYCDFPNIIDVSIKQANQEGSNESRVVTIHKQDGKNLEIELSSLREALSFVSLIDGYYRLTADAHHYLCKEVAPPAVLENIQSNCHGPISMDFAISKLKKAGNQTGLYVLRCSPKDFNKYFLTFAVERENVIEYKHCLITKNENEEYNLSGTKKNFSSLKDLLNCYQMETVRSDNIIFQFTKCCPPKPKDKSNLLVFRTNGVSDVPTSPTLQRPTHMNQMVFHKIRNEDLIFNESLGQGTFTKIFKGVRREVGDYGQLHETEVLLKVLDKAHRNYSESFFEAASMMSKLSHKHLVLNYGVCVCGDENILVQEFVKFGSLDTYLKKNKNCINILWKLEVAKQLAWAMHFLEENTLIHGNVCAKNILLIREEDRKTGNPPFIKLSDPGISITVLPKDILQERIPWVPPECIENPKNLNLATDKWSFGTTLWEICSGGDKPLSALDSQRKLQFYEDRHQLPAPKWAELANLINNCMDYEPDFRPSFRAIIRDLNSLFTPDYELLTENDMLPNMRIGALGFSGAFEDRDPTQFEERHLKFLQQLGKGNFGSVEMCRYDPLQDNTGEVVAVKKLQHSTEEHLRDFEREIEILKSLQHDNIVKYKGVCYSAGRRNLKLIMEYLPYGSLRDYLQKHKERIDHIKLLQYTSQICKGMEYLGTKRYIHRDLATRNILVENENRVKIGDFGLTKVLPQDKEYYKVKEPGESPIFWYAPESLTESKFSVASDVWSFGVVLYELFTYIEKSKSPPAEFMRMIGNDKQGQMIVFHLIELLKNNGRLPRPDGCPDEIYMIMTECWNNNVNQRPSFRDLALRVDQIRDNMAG

SMILES: O=C(CCn1cc(Nc2ncc3cnn(Cc4cccc(N5CCOCC5)c4)c3n2)cn1)NC1CC1 [Example 35, N-Cyclopropyl-3-(4-((1-(3-morpholinobenzyl)-1H-pyrazolo[3,4-d]pyrimidin-6-yl)amino)-1H-pyrazol-1-yl)propanamide]
- IC50 (JAK2): ≥ 10 µM
- JAK3/AurB Fold Selectivity (Aurora B): 10-50 Fold
- IC50 (Aurora B): 1000 to 10000 nM

SMILES: Cn1cc(Nc2ncc3cnn(Cc4cccc(N5CCNCC5=O)c4)c3n2)cn1 [Example 36, 1-(3-((6-((1-Methyl-1H-pyrazol-4-yl)amino)-1H-pyrazolo[3,4-d]pyrimidin-1-yl)methyl)phenyl)piperazin-2-one]
- IC50 (JAK2): ≥ 10 µM
- JAK3/AurB Fold Selectivity (Aurora B): 10-50 Fold
- IC50 (Aurora B): 1000 to 10000 nM

SMILES: Cn1cc(Nc2ncc3cnn(Cc4cc(N5CCOCC5)cc(F)c4F)c3n2)cn1 [Example 37, 1-(2,3-Difluoro-5-morpholinobenzyl)-N-(1-methyl-1H-pyrazol-4-yl)-1H-pyrazolo[3,4-d]pyrimidin-6-amine]
- IC50 (JAK2): ≥ 10 µM
- JAK3/AurB Fold Selectivity (Aurora B): >50 Fold
- IC50 (Aurora B): 1000 to 10000 nM

SMILES: Cn1cc(Nc2ncc3cnn(Cc4c(F)ccc(N5CCOCC5)c4F)c3n2)cn1 [Example 38, 1-(2,6-Difluoro-3-morpholinobenzyl)-N-(1-methyl-1H-pyrazol-4-yl)-1H-pyrazolo[3,4-d]pyrimidin-6-amine]
- IC50 (JAK2): ≥ 10 µM
- JAK3/AurB Fold Selectivity (Aurora B): 10-50 Fold
- IC50 (Aurora B): 100 to 1000 nM

SMILES: OCCn1cc(Nc2ncc3cnn(Cc4cccc(N5CCOCC5)c4F)c3n2)cn1 [Example 39, 2-(4-((1-(2-Fluoro-3-morpholinobenzyl)-1H-pyrazolo[3,4-d]pyrimidin-6-yl)amino)-1H-pyrazol-1-yl)ethanol]
- IC50 (JAK2): 1 to 10 µM
- JAK3/AurB Fold Selectivity (Aurora B): 10-50 Fold
- IC50 (Aurora B): 100 to 1000 nM

SMILES: Cn1cc(Nc2ncc3cnn(Cc4cccc(N5CCOCC5=O)c4F)c3n2)cn1 [Example 40, 4-(2-Fluoro-3-((6-((1-methyl-1H-pyrazol-4-yl)amino)-1H-pyrazolo[3,4-d]pyrimidin-1-yl)methyl)phenyl)morpholin-3-one]
- IC50 (JAK2): 1 to 10 µM
- JAK3/AurB Fold Selectivity (Aurora B): 10-50 Fold
- IC50 (Aurora B): 100 to 1000 nM

SMILES: CNCC1(Cn2cc(Nc3ncc4cnn(Cc5cccc(N6CCOCC6)c5)c4n3)cn2)COC1 [Example 41, N-(1-((3-((Methylamino)methyl)oxetan-3-yl)methyl)-1H-pyrazol-4-yl)-1-(3-morpholinobenzyl)-1H-pyrazolo[3,4-d]pyrimidin-6-amine]
- IC50 (JAK2): ≥ 10 µM
- JAK3/AurB Fold Selectivity (Aurora B): 10-50 Fold
- IC50 (Aurora B): 1000 to 10000 nM

SMILES: Cn1cc(Nc2ncc3cnn(Cc4cccc(N5CC6(COC6)C5)c4)c3n2)cn1 [Example 89, 1-(3-(2-oxa-6-azaspiro[3.3]heptan-6-yl)benzyl)-N-(1-methyl-1H-pyrazol-4-yl)-1H-pyrazolo[3,4-d]pyrimidin-6-amine]
- IC50 (JAK2): ≥ 10 µM
- JAK3/AurB Fold Selectivity (Aurora B): >50 Fold
- IC50 (Aurora B): 1000 to 10000 nM

SMILES: Cn1cc(Nc2ncc3cnn(Cc4cc(F)cc(N5CC6(COC6)C5)c4)c3n2)cn1 [Example 90, 1-(3-fluoro-5-(2-oxa-6-azaspiro[3.3]heptan-6-yl)benzyl)-N-(1-methyl-1H-pyrazol-4-yl)-1H-pyrazolo[3,4-d]pyrimidin-6-amine]
- IC50 (JAK2): 1 to 10 µM
- JAK3/AurB Fold Selectivity (Aurora B): >50 Fold
- IC50 (Aurora B): 1000 to 10000 nM

SMILES: Cn1cc(Nc2ncc3cnn(Cc4cccc(N5CC6(COC6)C5)c4F)c3n2)cn1 [Example 91, 1-(2-fluoro-3-(2-oxa-6-azaspiro[3.3]heptan-6-yl)benzyl)-N-(1-methyl-1H-pyrazol-4-yl)-1H-pyrazolo[3,4-d]pyrimidin-6-amine]
- IC50 (JAK2): 1 to 10 µM
- JAK3/AurB Fold Selectivity (Aurora B): >50 Fold
- IC50 (Aurora B): 1000 to 10000 nM

SMILES: Cn1cc(Nc2ncc3cnn(Cc4cc(F)cc(N5CCNCC5)c4)c3n2)cn1 [Example 92, 1-(3-fluoro-5-(piperazin-1-yl)benzyl)-N-(1-methyl-1H-pyrazol-4-yl)-1H-pyrazolo[3,4-d]pyrimidin-6-amine]
- IC50 (JAK2): 1 to 10 µM
- JAK3/AurB Fold Selectivity (Aurora B): >50 Fold
- IC50 (Aurora B): 100 to 1000 nM

SMILES: OCCn1cc(Nc2ncc3cnn(Cc4cc(F)cc(N5CCNCC5)c4)c3n2)cn1 [Example 93, 2-(4-((1-(3-fluoro-5-(piperazin-1-yl)benzyl)-1H-pyrazolo[3,4-d]pyrimidin-6-yl)amino)-1H-pyrazol-1-yl)ethanol]
- IC50 (JAK2): 1 to 10 µM
- JAK3/AurB Fold Selectivity (Aurora B): 10-50 Fold
- IC50 (Aurora B): 100 to 1000 nM

SMILES: Fc1cc(N2CCOCC2)c(F)c(Cn2ncc3cnc(Nc4cnn(CC5CCNC5)c4)nc32)c1F (stereo not drawn) [Example 94, N-(1-(pyrrolidin-3-ylmethyl)-1H-pyrazol-4-yl)-1-(2,3,6-trifluoro-5-morpholinobenzyl)-1H-pyrazolo[3,4-d]pyrimidin-6-amine]
- IC50 (JAK2): 1 to 10 µM
- JAK3/AurB Fold Selectivity (Aurora B): >50 Fold
- IC50 (Aurora B): 1000 to 10000 nM

SMILES: Cn1cc(Nc2ncc3cnn(Cc4cc(F)cc(N5CCNCC5)c4F)c3n2)cn1 [Example 95, 1-(2,5-difluoro-3-(piperazin-1-yl)benzyl)-N-(1-methyl-1H-pyrazol-4-yl)-1H-pyrazolo[3,4-d]pyrimidin-6-amine]
- IC50 (JAK2): 0.1 to 1 µM
- JAK3/AurB Fold Selectivity (Aurora B): 10-50 Fold
- IC50 (Aurora B): 100 to 1000 nM

SMILES: OCCn1cc(Nc2ncc3cnn(Cc4cc(F)cc(N5CCNCC5)c4F)c3n2)cn1 [Example 96, 2-(4-((1-(2,5-difluoro-3-(piperazin-1-yl)benzyl)-1H-pyrazolo[3,4-d]pyrimidin-6-yl)amino)-1H-pyrazol-1-yl)ethanol]
- IC50 (JAK2): 0.1 to 1 µM
- JAK3/AurB Fold Selectivity (Aurora B): >50 Fold
- IC50 (Aurora B): ≥ 10000 nM

SMILES: CN(C)CC(F)Cn1cc(Nc2ncc3cnn(Cc4cc(F)cc(N5CCOCC5=O)c4)c3n2)cn1 (stereo not drawn) [Example 97, 4-(3-((6-((1-(3-(dimethylamino)-2-fluoropropyl)-1H-pyrazol-4-yl)amino)-1H-pyrazolo[3,4-d]pyrimidin-1-yl)methyl)-5-fluorophenyl)morpholin-3-one]
- IC50 (JAK2): 1 to 10 µM
- JAK3/AurB Fold Selectivity (Aurora B): >50 Fold
- IC50 (Aurora B): 1000 to 10000 nM
